In patent publication US7691572B2, “Method and kit for detecting resistance to antiviral drugs” (priority 1998, dated 2010):

Assays:
Format in all cases: biochemical
[1] = target: T1, recombinant p66/p51 HIV-1 reverse transcriptase (Human immunodeficiency virus type 1 group M subtype B, UniProt P04585); assay: 3HdCTP incorporation assay with recombinant RT; details: read-out: concentration resulting in 50% inhibition of incorporation of 3HdCTP; (rI)n-dC12-18 template primer
T1 construct: recombinant p66/p51 HIV-1 reverse transcriptase; purchased Biotechnology General, Rehovot, Israel
Protocol: Wild type HIV-1SUM9, and multiple dideoxy nucleoside-resistant HIV-1SUM8 (Q151M mutation), HIV-1SUM12 (F77L/F116Y/Q151M) and HIV-1SUM13 (A62V/V751/F77L/F116Y/Q151M) MICs were provided by Dr. Mitsuya as described by Shirasaka et al., Proc. Natl. Acad. Sci. USA 92: 2398-2402 (1995). The synthesis and preparation of 3TC-TP were carried out as described by Schinazi et al., Antimicrob. Agents Chemother. 36: 2423-2431 (1992). The crude 3TC-5-TP was purified by FPLC using a HiLoad 26/10Q Sepharose Fast Flow™ Pharmacia chromatography column (Pharmacia, Piscataway, N.J.) and gradient of TEAE buffer (pH 7.0). The compound was characterized by UV spectroscopy, proton and phosphorous NMR, mass spectroscopy and HPLC.

[2] = tested on: HIV-1 RT; assay: Amp-RT assay, AZT-TP and other NRTI-TPs, reference viruses
[3] = tested on: plasma HIV-1 reverse transcriptase; assay: Amp-RT assay, inhibition by 3TC-TP, plasma samples of patients; details: for Inhibition of RT(%): 5 uM 3TC-TP
Protocol: The phenotypic assay used in this example was based on the analysis of the susceptibility of HIV-1 reverse transcriptase activity from plasma to inhibition by 3TC-TP.
For culture supernatant, 10 μl were directly used for the reverse transcriptase reaction. The analysis of phenotypic resistance in plasma samples was made in plasma-free virus pellets as described in the protocol set forth in FIG. 1B.
Amp-RT detects reverse transcriptase activity by using a heterologous RNA template derived from the encephalomyocarditis virus (EMCV), a complementary DNA oligoprimer, and PCR amplification of reverse transcriptase-generated EMCV cDNA. […] To determine the susceptibility of the reverse transcriptase to 3TC-TP, an additional Amp-RT reaction was made in the presence of 3TC-TP, with concentrations of 3TC-TP ranging from 0.1 to 10 μM. […] PCR amplification of reverse transcriptase products was made as follows after the addition of 200 μM of each dNTP. A volume of 50 μl of PCR buffer containing 2.5 units of Taq polymerase, 100 ng of the sense primer EMCF1, and 200 μM of each dNTP was added to the reverse transcriptase mixture.
A total of 30 EDTA-plasma samples from 15 HIV-1-infected patients from the Veteran Administration Medical Center, Decatur, Ga., were studied. The samples were collected from patients before and during anti-retroviral therapy with 3TC. The Amp-RT-based phenotypic assay was done under code with respect to date of serial bleed and reverse transcriptase genotype. One plasma specimen from a blood donor who tested antibody negative for HIV-1/2, HTLV-I/II was used as an assay negative control.

[4] = MNR HIV-1SUM12 (F77L, F116Y, Q151M)
[5] = MNR HIV-1SUM13 (A62V, V75I, F77L, F116Y, Q151M)
[6] = 5 μM 3TC-TP, pretreatment samples (n=12)
[7] = sample 1E, 12 weeks, AZT/3TC, V/M184
[8] = sample 1F, 18 weeks, AZT/3TC, V184
[9] = sample 2F, 12 weeks, AZT/3TC, V184
[10] = sample 3F, 12 weeks, AZT/3TC, M/V184
[11] = sample 3G, 21 weeks, AZT/3TC, V184
[12] = sample 6B, 12 weeks, AZT/3TC, V184
[13] = sample 8B, 8 weeks, AZT/3TC, V184
[14] = sample 9F, 12 weeks, AZT/3TC, V184
[15] = sample 10A, 4 weeks, AZT/3TC, M184
[16] = sample 10C, 12 weeks, AZT/3TC, M/V184
[17] = sample 10G, 52 weeks, AZT/3TC, V184
[18] = sample 11A, 12 weeks, AZT/3TC, V/M184
[19] = sample 11C, 36 weeks, AZT/3TC, V184
[20] = sample 12E, 28 weeks, AZT/3TC, V184
[21] = sample 13A, Pre, d4T, M184, N69, R70
[22] = sample 13F, 60 weeks, d4T/3TC/IND, V184
[23] = sample 14A, 1 week, AZT/3TC, M184, D69
[24] = sample 14F, 44 weeks, IND/3TC, V184
[25] = sample 15A, Pre, AZT, M184, D69
[26] = sample 15D, 40 weeks, AZT/3TC/IND, V184
[27] = 5 μM 3TC-TP, samples with 184V only
[28] = 5 μM 3TC-TP, samples with mixtures of wild type and resistant genotypes

## Nc1ccn([C@@H]2CS[C@H](COP(=O)(O)OP(=O)(O)OP(=O)(O)O)O2)c(=O)n1 [3TC-TP, 3TC-5′-triphosphate]
[1]
  IC50: 1300 nM
[2]; MNR HIV-1SUM8 (Q151M)
  IC50: 900 nM
  fold resistance (IC50) as compared to the mean IC values of WT HIV-1: (1.8) fold
[2]; [4]
  IC50: 2700 nM
  fold resistance (IC50) as compared to the mean IC values of WT HIV-1: (5.4) fold
[2]; [5]
  IC50: 3300 nM
  fold resistance (IC50) as compared to the mean IC values of WT HIV-1: (6.6) fold
[2]; WT HIV-1SUM9
  IC50: 400 nM
[2]; WT HIV-1xxBRUpitt
  IC50: 600 nM
[3]; [6]
  mean reverse transcriptase inhibition: 98.7%
  median reverse transcriptase inhibition: 99.8%
[3]; sample 1B, Pre, AZT/ddC, M184
  Inhibition of RT(%): 100%
[3]; [7]
  Inhibition of RT(%): 75.6%
  RT activity With 3TC-TP (5 uM): 5.1 × 10^−7 units/ml
[3]; [8]
  Inhibition of RT(%): 75.9%
  RT activity With 3TC-TP (5 uM): 3.3 × 10^−8 units/ml
[3]; sample 2B, Pre, AZT/ddC, M184
  Inhibition of RT(%): 99.7%
  RT activity With 3TC-TP (5 uM): 6.3 × 10^−9 units/ml
[3]; [9]
  Inhibition of RT(%): 68%
  RT activity With 3TC-TP (5 uM): 4.7 × 10^−7 units/ml
[3]; sample 3B, Pre, AZT, M184
  Inhibition of RT(%): 99.4%
  RT activity With 3TC-TP (5 uM): 1.7 × 10^−8 units/ml
[3]; [10]
  Inhibition of RT(%): 92.3%
  RT activity With 3TC-TP (5 uM): 1.2 × 10^−9 units/ml
[3]; [11]
  Inhibition of RT(%): 0%
  RT activity With 3TC-TP (5 uM): 1.0 × 10^−8 units/ml
[3]; sample 4A, Pre, AZT, M184
  Inhibition of RT(%): 99.9%
  RT activity With 3TC-TP (5 uM): 1.2 × 10^−10 units/ml
[3]; sample 5A, Pre, AZT, M184
  Inhibition of RT(%): 100%
[3]; sample 6A, Pre, None, M184
  Inhibition of RT(%): 99.9%
  RT activity With 3TC-TP (5 uM): 3.6 × 10^−8 units/ml
[3]; [12]
  Inhibition of RT(%): 34.7%
  RT activity With 3TC-TP (5 uM): 1.5 × 10^−5 units/ml
[3]; sample 7A, Pre, None, M/I184
  Inhibition of RT(%): 100%
[3]; sample 8A, Pre, AZT, M184
  Inhibition of RT(%): 99.9%
  RT activity With 3TC-TP (5 uM): 5.7 × 10^−8 units/ml
[3]; [13]
  Inhibition of RT(%): 15%
  RT activity With 3TC-TP (5 uM): 4.3 × 10^−5 units/ml
[3]; sample 9A, Pre, d4T, M184
  Inhibition of RT(%): 97.8%
  RT activity With 3TC-TP (5 uM): 6.3 × 10^−8 units/ml
[3]; [14]
  Inhibition of RT(%): 47%
  RT activity With 3TC-TP (5 uM): 1.1 × 10^−6 units/ml
[3]; [15]
  Inhibition of RT(%): 87.8%
  RT activity With 3TC-TP (5 uM): 9.1 × 10^−6 units/ml
[3]; [16]
  Inhibition of RT(%): 0%
  RT activity With 3TC-TP (5 uM): 1.9 × 10^−7 units/ml
[3]; [17]
  Inhibition of RT(%): 0%
  RT activity With 3TC-TP (5 uM): 3.5 × 10^−5 units/ml
[3]; [18]
  Inhibition of RT(%): 29.1%
  RT activity With 3TC-TP (5 uM): 1.3 × 10^−7 units/ml
[3]; [19]
  Inhibition of RT(%): 58.5%
  RT activity With 3TC-TP (5 uM): 7.0 × 10^−8 units/ml
[3]; sample 12A, Pre, AZT, M184
  Inhibition of RT(%): 96.3%
  RT activity With 3TC-TP (5 uM): 9.2 × 10^−7 units/ml
[3]; [20]
  Inhibition of RT(%): 70%
  RT activity With 3TC-TP (5 uM): 5.1 × 10^−7 units/ml
[3]; [21]
  Inhibition of RT(%): 95.9%
  RT activity With 3TC-TP (5 uM): 6.2 × 10^−8 units/ml
[3]; [22]
  Inhibition of RT(%): 0%
  RT activity With 3TC-TP (5 uM): 7.4 × 10^−5 units/ml
[3]; [23]
  Inhibition of RT(%): 94.7%
  RT activity With 3TC-TP (5 uM): 1.3 × 10^−8 units/ml
[3]; [24]
  Inhibition of RT(%): 0%
  RT activity With 3TC-TP (5 uM): 5.1 × 10^−9 units/ml
[3]; [25]
  Inhibition of RT(%): 95.5%
  RT activity With 3TC-TP (5 uM): 4.0 × 10^−6 units/ml
[3]; [26]
  Inhibition of RT(%): 0%
  RT activity With 3TC-TP (5 uM): 2.4 × 10^−10 units/ml
[3]; 5 μM 3TC-TP, samples after 1 to 60 weeks of therapy with 3TC (n=18)
  reverse transcriptase inhibition values: less than 95%
[3]; [27]
  mean inhibition: 30.8%
  median inhibition: 24.9%
[3]; [28]
  mean inhibition: 49.3%
  median inhibition: 52.4%
